What was measured:
[1] = tested on: T1, HeLa cell line tubulin (HeLaT), αβ-tubulin heterodimer; assay: mass photometry of ring assembly (Kd-app); type: binding
T1 construct: native αβ-tubulin purified from cultured HeLa cells (isotype mixture); with α1B-tubulin

[2] = target: T2, blood cell-specific α1/β1-tubulin (ChET), β1-tubulin (Gallus gallus, UniProt P02552+P09207); assay: ([…] Å, C8 ring); mass photometry Kd-app; type: binding
T2 construct: gene TUBA1A; native α1/β1-tubulin purified from the marginal band of chicken erythrocytes; with α1-tubulin (TUBA1A, P02552)
T2 sequence (P02552 whole entry): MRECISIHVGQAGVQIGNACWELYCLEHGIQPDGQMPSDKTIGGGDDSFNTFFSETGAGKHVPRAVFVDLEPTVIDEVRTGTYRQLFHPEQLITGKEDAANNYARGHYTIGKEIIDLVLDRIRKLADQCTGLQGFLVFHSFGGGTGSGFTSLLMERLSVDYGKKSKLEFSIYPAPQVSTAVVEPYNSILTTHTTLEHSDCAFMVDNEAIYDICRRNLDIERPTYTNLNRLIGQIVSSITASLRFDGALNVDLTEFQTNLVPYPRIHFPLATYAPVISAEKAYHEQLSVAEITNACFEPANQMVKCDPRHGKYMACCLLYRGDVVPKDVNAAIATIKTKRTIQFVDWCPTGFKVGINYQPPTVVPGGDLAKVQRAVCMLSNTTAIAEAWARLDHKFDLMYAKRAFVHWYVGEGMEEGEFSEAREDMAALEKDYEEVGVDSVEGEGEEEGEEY
T2 sequence (P09207 whole entry): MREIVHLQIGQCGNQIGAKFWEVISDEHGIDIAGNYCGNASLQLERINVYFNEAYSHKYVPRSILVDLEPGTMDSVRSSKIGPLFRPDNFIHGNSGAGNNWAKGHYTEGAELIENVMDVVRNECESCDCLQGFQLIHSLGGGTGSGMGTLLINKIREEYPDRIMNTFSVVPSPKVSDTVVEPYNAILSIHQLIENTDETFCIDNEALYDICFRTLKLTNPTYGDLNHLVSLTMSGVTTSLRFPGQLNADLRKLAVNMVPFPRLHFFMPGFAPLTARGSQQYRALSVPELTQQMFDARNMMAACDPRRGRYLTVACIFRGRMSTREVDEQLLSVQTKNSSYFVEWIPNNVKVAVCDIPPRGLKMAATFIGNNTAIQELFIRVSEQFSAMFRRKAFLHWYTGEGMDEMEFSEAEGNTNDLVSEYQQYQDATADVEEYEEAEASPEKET

[3] = target: T3, bovine brain tubulin (BBT), αβ-tubulin heterodimer; assay: mass photometry of ring assembly (Kd-app); type: binding, Bos taurus
T3 construct: native bovine brain αβ-tubulin (isotype mixture, PurSolutions)

[4] = target: T4, α1-tubulin (ChET) (Gallus gallus, UniProt P02552); assay: cryo-EM structure ([…] Å); type: binding
T4 construct: gene TUBA1A; native α1/β1-tubulin from chicken erythrocytes, Cp-52 C8 ring; with β1-tubulin (TUBB1, P09207)
T4 sequence (P02552 whole entry): as the sequence (P02552 whole entry) above
T4 sequence (P09207 whole entry partner): as the sequence (P09207 whole entry) above

Row | Compound | Kd [1] | Kd [2] | Kd [3] | cryo-EM structure (3.2 Å) [4]
1 | COc1ccc(C[C@H]2NC(=O)/C=C/C[C@@H]([C@H](C)[C@H]3O[C@@H]3c3ccccc3)OC(=O)[C@H](CC(C)C)OC(=O)C(C)(C)CNC2=O)cc1Cl [Cp-52, cryptophycin-52] | 25 ± 7 nM | 65 ± 17 nM | 172 ± 36 nM | 
2 | Nc1nc2c(ncn2[C@@H]2O[C@H](COP(=O)(O)OP(=O)(O)OP(=O)(O)O)[C@@H](O)[C@H]2O)c(=O)[nH]1 [GTP] |  |  |  | comprises one copy of α1-tubulin with its bound GTP

— publication PMC11791314 (The Journal of Biological Chemistry, 2024)
